Measured values published in US20060216718A1, “Method and system for estimating gene expression data” (priority 2005, published 2006).

System: gene expression
Assay: Differential gene expression by microarray, linear multi-factor model (FIG. 3)
Type: in vivo, rats
Details: in both males and females, relative to baseline treatment combination (males who received corn oil)
Experimental: Returning to FIG. 1, the gene expression data 14 thus acquired and, typically, background-corrected, transformed, normalized, and/or otherwise conditioned, is analyzed at step 16 without aggregating or summarizing the readings of the multiple probes from each gene, and with simultaneous assessment of the effects of all the experimental factors. For example, a linear, multi-factor model is used in one embodiment to achieve this. The linear, multi-factor model explicitly accounts for differences in expression between genes, between probes from the same gene, and between the effects of experimental factors (which in one embodiment are gender of the experimental animals, and chemical substance they have been exposed to). The effects of the experimental factors on gene expression are estimated simultaneously, rather than one-at-a-time. In this way, the analysis corresponds to the experimental design, where the factor levels are varied together and simultaneously, rather than one at a time, this enabling the assessment of possible, non-linear interactions between experimental factors. In one example, the linear model is of the form Yijnk=γn+τkn+σln+(τσ)kln+επjn+εijkln […]

## Clc1cc2c(cc1Cl)Oc1cc(Cl)c(Cl)cc1O2 [TCDD]
  differential gene expression (fold increase) of the genes denoted by reference number 40: about 40 fold
